Data: patent publication US8791155B2, “Chroman derivatives” (Edison Pharmaceuticals, Inc., priority 2003, dated 2014)
pEC50: −log10 of the molar value.

The molecules below were run on dopaminergic neuronal cell line (assay: High glutamate-induced oxidative stress assay (HGOS)). Conditions: Mus musculus; 30 mM glutamate, 16 hrs; read-out: EC50, protection against HGOS cell injury and cell death.
Type: cell-based
Method in brief: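 Mouse dopaminergic cells were grown 72 h at 33° C, washed into HBSS, then exposed to compounds in glucose-free DMEM with 1 mM glucose and 30 mM glutamate for 16 h at 37° C. Viability was read as Cell Tracker Green fluorescence at 485/538 nm after 30 min of 5 μM dye loading.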

Q: With `COC(=O)c1ccc(-c2c(O)c(C)c(C)c3c2CCC(C)(C)O3)cc1` [4-(6-Hydroxy-2,2,7,8-tetramethyl-chroman-5-yl)-benzoic acid methyl ester] as the molecule, how does the pEC50 read?
A: > 5.30

Q: How did the pEC50 turn out when `Cc1c(O)cc2c(c1C)OC(C)(CC/C=C1\SC(=O)NC1=O)CC2` (centres unmarked) [5-[3-(6-Hydroxy-2,7,8-trimethyl-chroman-2-yl)-propylidene]-thiazolidine-2,4-dione] was run?
A: > 5.30

Q: `C=CCSCc1c(O)c(C)c(C)c2c1CCC(C)(C)O2` [5-Allylsulfanylmethyl-2,2,7,8-tetramethyl-chroman-6-ol] was tested. Which pEC50 did it give?
A: > 5.30

Q: With `CC1=NN(c2ccccc2)C(=O)C1C(CCC1(C)CCc2cc(O)c(C)c(C)c2O1)C1C(=O)N(c2ccccc2)N=C1C` (centres unmarked) [1-(6-Hydroxy-2,7,8-trimethyl-chroman-2-yl)-3-bis-(5-methyl-2-phenyl-2,4-dihydro-pyrazol-3-one-4-yl)-propane] as the molecule, how does the pEC50 read?
A: > 5.30

Q: How did the pEC50 turn out when `Cc1c(C)c2c(c(C)c1O)CCC(C)(C=C(Br)Br)O2` (centres unmarked) [2-(2,2-Dibromo-vinyl)-2,5,7,8-tetramethyl-chroman-6-ol] was run?
A: > 5.30
